The subject of this assay is Atrial natriuretic peptide receptor 1 (Oryctolagus cuniculus). Put plainly: Binding affinity towards the low-affinity site atrionatriuretic peptide receptor 1 of rabbit adrenal membrane.

In turn, `CC[C@H](C)[C@@H]1NC(=O)[C@@H](CCCN=C(N)N)NC(=O)CNC(=O)CNC(=O)[C@@H](Cc2ccccc2)NC(=O)[C@@H](C)NC(=O)[C@H](NC(=O)[C@H](CO)NC(=O)[C@@H](N)CO)CSSC[C@H](C(=O)N[C@H](Cc2ccccc2)C(=O)N[C@H](CCCN=C(N)N)C(=O)O)NC(=O)[C@@H]([C@@H](C)CC)NC(=O)[C@H](C)NC(=O)[C@@H](CC(=O)O)NC1=O` showed a KL of 7100 nM.

`CC[C@H](C)[C@@H]1NC(=O)[C@@H](CCCN=C(N)N)NC(=O)CNC(=O)CNC(=O)[C@@H](Cc2ccccc2)NC(=O)CCNC(=O)[C@H](NC(=O)[C@H](CO)NC(=O)[C@@H](N)CO)CSSC[C@H](C(=O)N[C@H](Cc2ccccc2)C(=O)N[C@H](CCCN=C(N)N)C(=O)O)NC(=O)[C@@H]([C@@H](C)CC)NC(=O)[C@H](CCCN=C(N)N)NC(=O)[C@@H](CC(=O)O)NC1=O` displayed a KL of 6500 nM.

`CC[C@H](C)[C@@H]1NC(=O)[C@@H](CCCN=C(N)N)NC(=O)CNC(=O)CNC(=O)[C@@H](Cc2ccccc2)NC(=O)C(C)NC(=O)[C@H](NC(=O)CCCCCCCN)CSSC[C@H](C(=O)N[C@H](Cc2ccccc2)C(=O)N[C@H](CCCN=C(N)N)C(=O)O)NC(=O)[C@@H]([C@@H](C)CC)NC(=O)[C@H](CCCN=C(N)N)NC(=O)[C@@H](CC(=O)O)NC1=O` (stereo in doubt): the KL amounted to 790 nM.

`CC[C@H](C)[C@@H]1NC(=O)[C@@H](CCCN=C(N)N)NC(=O)CNC(=O)CNC(=O)[C@@H](Cc2ccccc2)NC(=O)C(C)NC(=O)[C@H](NC(=O)[C@@H](N)CCCCN)CSSC[C@H](C(=O)N[C@H](Cc2ccccc2)C(=O)N[C@H](CCCN=C(N)N)C(=O)O)NC(=O)[C@@H]([C@@H](C)CC)NC(=O)[C@H](CCCN=C(N)N)NC(=O)[C@@H](CC(=O)O)NC1=O` (stereo in doubt) registered a KL of 390 nM.

In turn, `CC[C@H](C)[C@@H]1NC(=O)[C@H](CCCN=C(N)N)NC(=O)[C@@H](CC(=O)O)NC(=O)[C@H]([C@@H](C)CC)NC(=O)[C@@H](CCCN=C(N)N)NC(=O)CNC(=O)CNC(=O)[C@@H](Cc2ccccc2)NC(=O)C(C)NC(=O)[C@@H](NC(=O)[C@H](CO)NC(=O)[C@@H](N)CO)CSSC[C@@H](C(=O)N2C[C@@H](C(=O)N[C@H](CCCN=C(N)N)C(=O)O)Cc3ccccc32)NC1=O` (stereo in doubt) came in with a KL of 540 nM.

As to `CC[C@H](C)[C@@H]1NC(=O)[C@@H](CCCCN)NC(=O)CNC(=O)CNC(=O)[C@@H](C2CCCCC2)NC(=O)CCSSC[C@H](C(N)=O)NC(=O)[C@@H](CCCN=C(N)N)NC(=O)[C@H](Cc2ccccc2)NC(=O)[C@@H]([C@@H](C)CC)NC(=O)[C@H](CCCN=C(N)N)NC(=O)[C@@H](CC(=O)O)NC1=O`, the KL stood at 150 nM.

In turn, `CC[C@H](C)[C@@H]1NC(=O)[C@@H](CCCN=C(N)N)NC(=O)[C@@H](C)NC(=O)[C@@H](C)NC(=O)[C@@H](C2CCCCC2)NC(=O)[C@H](NC(=O)[C@H](N)CCCN=C(N)N)CSSC[C@H](C(N)=O)NC(=O)[C@@H](CCCN=C(N)N)NC(=O)[C@H](Cc2ccccc2)NC(=O)[C@@H]([C@@H](C)CC)NC(=O)[C@H](CCCN=C(N)N)NC(=O)[C@@H](CC(=O)O)NC1=O` came in with a KL of 200 nM.

`CC[C@H](C)[C@@H]1NC(=O)[C@@H](CCCN=C(N)N)NC(=O)CNC(=O)CNC(=O)[C@@H](Cc2ccccc2)NC(=O)C(C)NC(=O)[C@H](NC(=O)CCCCN)CSSC[C@H](C(=O)N[C@H](Cc2ccccc2)C(=O)N[C@H](CCCN=C(N)N)C(=O)O)NC(=O)[C@@H]([C@@H](C)CC)NC(=O)[C@H](CCCN=C(N)N)NC(=O)[C@@H](CC(=O)O)NC1=O` (stereo in doubt): the KL is 280 nM.

`CC[C@H](C)[C@@H]1NC(=O)[C@@H](CCCN=C(N)N)NC(=O)CNC(=O)CNC(=O)[C@@H](Cc2cc(I)c(O)c(I)c2)NC(=O)[C@H](NC(=O)[C@H](N)CCCN=C(N)N)CSSC[C@H](C(N)=O)NC(=O)[C@@H](CCCN=C(N)N)NC(=O)[C@H](Cc2ccccc2)NC(=O)[C@@H]([C@@H](C)CC)NC(=O)[C@H](CCCN=C(N)N)NC(=O)[C@@H](CC(=O)O)NC1=O` registered a KL of 1700 nM.

In turn, `CC[C@H](C)[C@@H]1NC(=O)[C@@H](CCCN=C(N)N)NC(=O)CNC(=O)CNC(=O)[C@@H](Cc2ccccc2)NC(=O)C(C)NC(=O)[C@H](NC(=O)[C@@H](N)CCCN=C(N)N)CSSC[C@H](C(=O)N[C@H](Cc2ccccc2)C(=O)N[C@H](CCCN=C(N)N)C(=O)O)NC(=O)[C@@H]([C@@H](C)CC)NC(=O)[C@H](CCCN=C(N)N)NC(=O)[C@@H](CC(=O)O)NC1=O` (stereo in doubt) returned a KL of 240 nM.

In turn, `CC[C@H](C)[C@@H]1NC(=O)[C@@H](CCCN=C(N)N)NC(=O)C2CCC(CC2)NC(=O)C2CCC(CC2)NC(=O)[C@@H](Cc2ccccc2)NC(=O)C(C)NC(=O)[C@H](NC(=O)[C@H](CO)NC(=O)[C@@H](N)CO)CSSC[C@H](C(=O)N[C@H](Cc2ccccc2)C(=O)N[C@H](CCCN=C(N)N)C(=O)O)NC(=O)[C@@H]([C@@H](C)CC)NC(=O)[C@H](CCCN=C(N)N)NC(=O)[C@@H](CC(=O)O)NC1=O` (stereo in doubt) gave a KL of 1000 nM.

`CC[C@H](C)[C@@H]1NC(=O)[C@@H](CCCN=C(N)N)NC(=O)CNC(=O)CNC(=O)[C@@H](Cc2ccccc2)NC(=O)[C@H](NC(=O)[C@@H](CO)NC(=O)[C@H](N)CO)CSSC[C@H](C(=O)O)NC(=O)[C@@H](CCCN=C(N)N)NC(=O)[C@H](Cc2ccccc2)NC(=O)[C@@H]([C@@H](C)CC)NC(=O)[C@H](CCCN=C(N)N)NC(=O)[C@@H](CC(=O)O)NC1=O` showed a KL of 790 nM.

`CC[C@H](C)[C@@H]1NC(=O)[C@H](CCCN=C(N)N)NC(=O)[C@@H](CC(=O)O)NC(=O)[C@H]([C@@H](C)CC)NC(=O)[C@H](CCCNC(N)=O)NC(=O)CNC(=O)CNC(=O)[C@@H](Cc2ccccc2)NC(=O)[C@@H](C)NC(=O)[C@@H](NC(=O)[C@H](CO)NC(=O)[C@@H](N)CO)CSSC[C@@H](C(=O)N[C@H](Cc2ccccc2)C(=O)N[C@H](CCCN=C(N)N)C(=O)O)NC1=O`: the KL was determined as 6900 nM.

Consider `CC[C@H](C)[C@@H]1NC(=O)[C@@H](CCCN=C(N)N)NC(=O)CNC(=O)CNC(=O)[C@@H](C2CCCCC2)NC(=O)[C@H](N)CSSC[C@H](C(N)=O)NC(=O)[C@@H](CCCN=C(N)N)NC(=O)[C@H](Cc2ccccc2)NC(=O)[C@@H]([C@@H](C)CC)NC(=O)[C@H](C)NC(=O)[C@@H](CC(=O)O)NC1=O`, for which the KL is 8900 nM.

As to `CC[C@H](C)[C@@H]1NC(=O)[C@@H](CCCN=C(N)N)NC(=O)CNC(=O)CNC(=O)[C@@H](Cc2ccccc2)NC(=O)CNC(=O)[C@H](NC(=O)[C@H](CO)NC(=O)[C@@H](N)CO)CSSC[C@H](C(=O)N[C@H](Cc2ccccc2)C(=O)N[C@H](CCCN=C(N)N)C(=O)O)NC(=O)[C@@H]([C@@H](C)CC)NC(=O)[C@H](CCCN=C(N)N)NC(=O)[C@@H](CC(=O)O)NC1=O`, the KL came out at 410 nM.

As to `CC[C@H](C)[C@@H]1NC(=O)[C@@H](CCCN=C(N)N)NC(=O)CNC(=O)CNC(=O)[C@@H](Cc2ccccc2)NC(=O)[C@H](C2CCCCC2)NC(=O)[C@H](NC(=O)[C@H](CO)NC(=O)[C@@H](N)CO)CSSC[C@H](C(=O)N[C@H](Cc2ccccc2)C(=O)N[C@H](CCCN=C(N)N)C(=O)O)NC(=O)[C@@H]([C@@H](C)CC)NC(=O)[C@H](CCCN=C(N)N)NC(=O)[C@@H](CC(=O)O)NC1=O`, the KL came out at 180 nM.

Take `CC[C@H](C)[C@@H]1NC(=O)[C@@H](CCCN=C(N)N)NC(=O)[C@H](CC(=O)O)NC(=O)[C@@H]([C@@H](C)CC)NC(=O)[C@H](CCCN=C(N)N)NC(=O)CNC(=O)CNC(=O)[C@H](Cc2ccccc2)NC(=O)CN(C)C(=O)[C@@H](NC(=O)[C@@H](CO)NC(=O)[C@H](N)CO)CSSC[C@@H](C(=O)N[C@H](Cc2ccccc2)C(=O)N[C@H](CCCN=C(N)N)C(=O)O)NC1=O`: the KL was 410 nM.

The molecule `CC[C@H](C)[C@@H]1NC(=O)[C@@H](CCCN=C(N)N)NC(=O)CNC(=O)CNC(=O)[C@@H](Cc2ccccc2)NC(=O)CNC(=O)[C@H](NC(=O)[C@H](CO)NC(=O)[C@@H](N)CO)CSSC[C@H](C(=O)N2CCC[C@@H]2C(=O)N[C@H](CCCN=C(N)N)C(=O)O)NC(=O)[C@@H]([C@@H](C)CC)NC(=O)[C@H](CCCN=C(N)N)NC(=O)[C@@H](CC(=O)O)NC1=O` came in with a KL of 440 nM.

In turn, `CC[C@H](C)[C@@H]1NC(=O)[C@@H](CCCN=C(N)N)NC(=O)CNC(=O)CNC(=O)[C@@H](Cc2ccccc2)NC(=O)C(C)NC(=O)[C@H](N)CSSC[C@H](C(=O)N[C@H](Cc2ccccc2)C(=O)N[C@H](CCCN=C(N)N)C(=O)O)NC(=O)[C@@H]([C@@H](C)CC)NC(=O)[C@H](CCCN=C(N)N)NC(=O)[C@@H](CC(=O)O)NC1=O` (stereo in doubt) showed a KL of 2700 nM.

The molecule `CC[C@H](C)[C@@H]1NC(=O)[C@@H](CCCN=C(N)N)NC(=O)CNC(=O)CNC(=O)[C@@H](C2CCCCC2)NC(=O)CCSSC[C@H](C(N)=O)NC(=O)[C@@H](CCCN=C(N)N)NC(=O)[C@H](Cc2ccccc2)NC(=O)[C@@H]([C@@H](C)CC)NC(=O)[C@H](CCCN=C(N)N)NC(=O)[C@@H](CCC(=O)O)NC1=O` showed a KL of 430 nM.

Turning to `CC[C@H](C)[C@@H]1NC(=O)[C@@H](CCCN=C(N)N)NC(=O)CNC(=O)CNC(=O)[C@@H](Cc2ccccc2)NC(=O)[C@H](NC(=O)[C@H](CO)NC(=O)[C@@H](N)CO)CSSC[C@H](C(=O)N[C@H](Cc2ccccc2)C(=O)N[C@H](CCCN=C(N)N)C(=O)O)NC(=O)[C@@H]([C@@H](C)CC)NC(=O)[C@H](CCCN=C(N)N)NC(=O)[C@@H](CC(=O)O)NC1=O`, the KL was determined as 4400 nM.

`CC[C@H](C)[C@@H]1NC(=O)[C@@H](CCCN=C(N)N)NC(=O)CNC(=O)CNC(=O)[C@@H](C2CCCCC2)NC(=O)[C@H](NC(=O)[C@H](N)CCCN=C(N)N)CSSC[C@H](C(=O)O)NC(=O)[C@@H](CCCN=C(N)N)NC(=O)[C@H](C)NC(=O)[C@@H]([C@@H](C)CC)NC(=O)[C@H](CCCN=C(N)N)NC(=O)[C@@H](CC(=O)O)NC1=O` yielded a KL of 280 nM.

In turn, `CC[C@H](C)[C@@H]1NC(=O)[C@@H](CCCN=C(N)N)NC(=O)CNC(=O)CNC(=O)[C@H](Cc2ccccc2)NC(=O)[C@H](NC(=O)[C@H](CO)NC(=O)[C@@H](N)CO)CSSC[C@H](C(=O)N[C@H](Cc2ccccc2)C(=O)N[C@H](CCCN=C(N)N)C(=O)O)NC(=O)[C@@H]([C@@H](C)CC)NC(=O)[C@H](CCCN=C(N)N)NC(=O)[C@@H](CC(=O)O)NC1=O` gave a KL of 2000 nM.

The values are drawn from ChEMBL document CHEMBL1125386, “Small atrial natriuretic peptide analogues: design, synthesis, and structural requirements for guanylate cyclase activation” (J Med Chem, 1992).
